Source: BindingDB's records for doi:10.1016/j.ejmech.2017.07.038 (Jain University, 2017)
pIC50: −log10 of the molar value.

Test: Antagonist activity at ER in human MCF7 cells assessed as inhibition of 17beta-estradiol-induced cell proliferation

pIC50: 9.05
SMILES: Oc1ccc2c(c1)C(c1ccc(OCCN3CCCCC3)cc1)c1c(sc3cc(O)ccc13)C2 (stereo unspecified)
